Experimental data reported in patent US10513522B2, “Azetidinyl phenyl, pyridyl or pyrazinyl carboxamide derivatives as JAK inhibitors” (Incyte Corporation, priority 2011, dated 2019).

Tested on: human JAK1 (a.a. 837-1142)
Assay: In vitro JAK kinase assay (HTRF, phosphorylation of biotinylated peptide), JAK1
Format: biochemical
Settings: ratio of IC50 at 1 mM ATP
Description: The catalytic activity of JAK1, JAK2 or JAK3 was assayed by measuring the phosphorylation of a biotinylated peptide. The phosphorylated peptide was detected by homogenous time resolved fluorescence (HTRF). […] Reactions were carried out at room temperature for 1 hour and then stopped with 20 μL 45 mM EDTA, 300 nM SA-APC, 6 nM Eu-Py20 in assay buffer (Perkin Elmer, Boston, Mass.). Binding to the Europium labeled antibody took place for 40 minutes and HTRF signal was measured on a Fusion plate reader (Perkin Elmer, Boston, Mass.).

| SMILES | JAK2/JAK1 |
| --- | --- |
| C[C@@H](NC(=O)c1cc(F)c(N2CC(CC#N)(n3cc(-c4ncnc5[nH]ccc45)cn3)C2)cc1F)C1CC1 [Example 21, 4-{3-(Cyanomethyl)-3-[4-(7H-pyrrolo[2,3-d]pyrimidin-4-yl)-1H-pyrazol-1-yl]azetidin-1-yl}-N-[(1R)-1-cyclopropylethyl]-2,5-difluorobenzamide] | A (A means greater than or equal to 10) |
| C[C@@H](NC(=O)c1ccc(N2CC(CC#N)(n3cc(-c4ncnc5[nH]ccc45)cn3)C2)c(F)c1)C1CC1 [Example 4, 4-{3-(Cyanomethyl)-3-[4-(7H-pyrrolo[2,3-d]pyrimidin-4-yl)-1H-pyrazol-1-yl]azetidin-1-yl}-N-[(1R)-1-cyclopropylethyl]-3-fluorobenzamide] | A (A means greater than or equal to 10) |
| CC(C)NC(=O)c1ccc(N2CC(CC#N)(n3cc(-c4ncnc5[nH]ccc45)cn3)C2)cn1 [Example 9, 5-{3-(Cyanomethyl)-3-[4-(7H-pyrrolo[2,3-d]pyrimidin-4-yl)-1H-pyrazol-1-yl]azetidin-1-yl}-N-isopropylpyridine-2-carboxamide] | A (A means greater than or equal to 10) |
| CC(NC(=O)c1ccc(N2CC(CC#N)(n3cc(-c4ncnc5[nH]ccc45)cn3)C2)cc1)C1CCN(C)CC1 (stereo not shown) [Example 20, 4-{3-(Cyanomethyl)-3-[4-(7H-pyrrolo[2,3-d]pyrimidin-4-yl)-1H-pyrazol-1-yl]azetidin-1-yl}-N-[1-(1-methylpiperidin-4-yl)ethyl]benzamide] | A (A means greater than or equal to 10) |
| N#CCC1(n2cc(-c3ncnc4[nH]ccc34)cn2)CN(c2cnc(C(=O)N[C@@H](C3CC3)C(F)(F)F)cn2)C1 [Example 32, 5-{3-(Cyanomethyl)-3-[4-(7H-pyrrolo[2,3-d]pyrimidin-4-yl)-1H-pyrazol-1-yl]azetidin-1-yl}-N-[(1S)-1-cyclopropyl-2,2,2-trifluoroethyl]pyrazine-2-carboxamide] | A (A means greater than or equal to 10) |
| C[C@@H](NC(=O)c1cc(F)c(N2CC(CC#N)(n3cc(-c4ncnc5[nH]ccc45)cn3)C2)cc1F)C(F)(F)F [Example 29, 4-{3-(Cyanomethyl)-3-[4-(7H-pyrrolo[2,3-d]pyrimidin-4-yl)-1H-pyrazol-1-yl]azetidin-1-yl}-2,5-difluoro-N-[(1R)-2,2,2-trifluoro-1-methylethyl]benzamide] | A (A means greater than or equal to 10) |
| C[C@H](NC(=O)c1ccc(N2CC(CC#N)(n3cc(-c4ncnc5[nH]ccc45)cn3)C2)cc1F)C1CCCCC1 [Example 15, 4-{3-(Cyanomethyl)-3-[4-(7H-pyrrolo[2,3-d]pyrimidin-4-yl)-1H-pyrazol-1-yl]azetidin-1-yl}-N-[(1S)-1-cyclohexylethyl]-2-fluorobenzamide] | A (A means greater than or equal to 10) |
| CC(C)NC(=O)c1ccc(N2CC(CC#N)(n3cc(-c4ccnc5[nH]ccc45)cn3)C2)c(F)c1 [Example 27, 4-{3-(Cyanomethyl)-3-[4-(1H-pyrrolo[2,3-b]pyridin-4-yl)-1H-pyrazol-1-yl]azetidin-1-yl}-3-fluoro-N-isopropylbenzamide] | A (A means greater than or equal to 10) |
| C[C@H](NC(=O)c1ccc(N2CC(CC#N)(n3cc(-c4ncnc5[nH]ccc45)cn3)C2)c(F)c1)C1CC1 [Example 5, 4-{3-(Cyanomethyl)-3-[4-(7H-pyrrolo[2,3-d]pyrimidin-4-yl)-1H-pyrazol-1-yl]azetidin-1-yl}-N-[(1S)-1-cyclopropylethyl]-3-fluorobenzamide] | A (A means greater than or equal to 10) |
| N#CCC1(n2cc(-c3ccnc4[nH]ccc34)cn2)CN(c2cnc(C(=O)NCC(F)(F)F)cn2)C1 [Example 36, 5-{3-(Cyanomethyl)-3-[4-(1H-pyrrolo[2,3-b]pyridin-4-yl)-1H-pyrazol-1-yl]azetidin-1-yl}-N-(2,2,2-trifluoroethyl)pyrazine-2-carboxamide] | A (A means greater than or equal to 10) |
| N#CCC1(n2cc(-c3ncnc4[nH]ccc34)cn2)CN(c2ccc(C(=O)NC3CC(F)(F)C3)nc2)C1 [Example 12, 5-{3-(Cyanomethyl)-3-[4-(7H-pyrrolo[2,3-d]pyrimidin-4-yl)-1H-pyrazol-1-yl]azetidin-1-yl}-N-(3,3-difluorocyclobutyl)pyridine-2-carboxamide] | A (A means greater than or equal to 10) |
| CC(C)NC(=O)c1ccc(N2CC(CC#N)(n3cc(-c4ccnc5[nH]ccc45)cn3)C2)cc1 [Example 1, 4-{3-(Cyanomethyl)-3-[4-(1H-pyrrolo[2,3-b]pyridin-4-yl)-1H-pyrazol-1-yl]azetidin-1-yl}-N-isopropylbenzamide] | A (A means greater than or equal to 10) |
| C[C@H](NC(=O)c1cnc(N2CC(CC#N)(n3cc(-c4ccnc5[nH]ccc45)cn3)C2)cn1)C1CC1 [Example 41, 5-{3-(Cyanomethyl)-3-[4-(1H-pyrrolo[2,3-b]pyridin-4-yl)-1H-pyrazol-1-yl]azetidin-1-yl}-N-[(1S)-1-cyclopropylethyl]pyrazine-2-carboxamide] | A (A means greater than or equal to 10) |
| C[C@H](NC(=O)c1ccc(N2CC(CC#N)(n3cc(-c4ncnc5[nH]ccc45)cn3)C2)cc1F)C(F)(F)F [Example 22, 4-{3-(Cyanomethyl)-3-[4-(7H-pyrrolo[2,3-d]pyrimidin-4-yl)-1H-pyrazol-1-yl]azetidin-1-yl}-2-fluoro-N-[(1S)-2,2,2-trifluoro-1-methylethyl]benzamide] | A (A means greater than or equal to 10) |
| CC[C@@H](C)NC(=O)c1ccc(N2CC(CC#N)(n3cc(-c4ncnc5[nH]ccc45)cn3)C2)cc1.O=C(O)C(F)(F)F.O=C(O)C(F)(F)F [Example 25, 4-{3-(Cyanomethyl)-3-[4-(7H-pyrrolo[2,3-d]pyrimidin-4-yl)-1H-pyrazol-1-yl]azetidin-1-yl}-N-[(1R)-1-methylpropyl]benzamide bis(trifluoroacetate)] | A (A means greater than or equal to 10) |
| CN(C(=O)c1ccc(N2CC(CC#N)(n3cc(-c4ncnc5[nH]ccc45)cn3)C2)c(F)c1)C1CC1 [Example 7, 4-{3-(Cyanomethyl)-3-[4-(7H-pyrrolo[2,3-d]pyrimidin-4-yl)-1H-pyrazol-1-yl]azetidin-1-yl}-N-cyclopropyl-3-fluoro-N-methylbenzamide] | A (A means greater than or equal to 10) |
| N#CCC1(n2cc(-c3ncnc4[nH]ccc34)cn2)CN(c2cc(F)c(C(=O)NCC(F)F)cc2F)C1 [Example 37, 4-{3-(Cyanomethyl)-3-[4-(7H-pyrrolo[2,3-d]pyrimidin-4-yl)-1H-pyrazol-1-yl]azetidin-1-yl}-N-(2,2-difluoroethyl)-2,5-difluorobenzamide] | A (A means greater than or equal to 10) |
| CC(C)NC(=O)c1cc(Cl)c(N2CC(CC#N)(n3cc(-c4ncnc5[nH]ccc45)cn3)C2)cc1F [Example 8, 5-Chloro-4-{3-(cyanomethyl)-3-[4-(7H-pyrrolo[2,3-d]pyrimidin-4-yl)-1H-pyrazol-1-yl]azetidin-1-yl}-2-fluoro-N-isopropylbenzamide] | A (A means greater than or equal to 10) |
| C[C@H](NC(=O)c1cnc(N2CC(CC#N)(n3cc(-c4ncnc5[nH]ccc45)cn3)C2)cn1)C(F)(F)F [Example 31, 5-{3-(Cyanomethyl)-3-[4-(7H-pyrrolo[2,3-d]pyrimidin-4-yl)-1H-pyrazol-1-yl]azetidin-1-yl}-N-[(1S)-2,2,2-trifluoro-1-methylethyl]pyrazine-2-carboxamide] | A (A means greater than or equal to 10) |
